Laboratory results published in patent US20240018158A1, “BRM TARGETING COMPOUNDS AND ASSOCIATED METHODS OF USE” (Prelude Therapeutics Incorporated, priority 2020, published 2024).

Molecular target: SMARCA2 (Homo sapiens (Human), UniProt P51531)
Experiment: SMARCA2 HiBiT degradation assay in HEK293T cells
Assay type: cell-based
Conditions: 293T HiBiT assay, 24 h; for DC50: read-out: DC50 (SM2-293T) SMARCA2 degradation potency; for Dmax: HEK-293T, read-out: Dmax % (SM2-293T) maximum SMARCA2 degradation within the concentrations tested
Method in brief: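 Luminescence from endogenous C-terminally HiBiT-tagged SMARCA2 (homozygous knock-in, LgBiT HEK293T) measured after 24 h compound exposure, 11 concentrations in 3-fold steps. DMSO and 1 μM PRT1001728 set 0% and 100%; DC50 fitted by four-parameter logistic model.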

SMARCA2, sequence (P51531 whole entry): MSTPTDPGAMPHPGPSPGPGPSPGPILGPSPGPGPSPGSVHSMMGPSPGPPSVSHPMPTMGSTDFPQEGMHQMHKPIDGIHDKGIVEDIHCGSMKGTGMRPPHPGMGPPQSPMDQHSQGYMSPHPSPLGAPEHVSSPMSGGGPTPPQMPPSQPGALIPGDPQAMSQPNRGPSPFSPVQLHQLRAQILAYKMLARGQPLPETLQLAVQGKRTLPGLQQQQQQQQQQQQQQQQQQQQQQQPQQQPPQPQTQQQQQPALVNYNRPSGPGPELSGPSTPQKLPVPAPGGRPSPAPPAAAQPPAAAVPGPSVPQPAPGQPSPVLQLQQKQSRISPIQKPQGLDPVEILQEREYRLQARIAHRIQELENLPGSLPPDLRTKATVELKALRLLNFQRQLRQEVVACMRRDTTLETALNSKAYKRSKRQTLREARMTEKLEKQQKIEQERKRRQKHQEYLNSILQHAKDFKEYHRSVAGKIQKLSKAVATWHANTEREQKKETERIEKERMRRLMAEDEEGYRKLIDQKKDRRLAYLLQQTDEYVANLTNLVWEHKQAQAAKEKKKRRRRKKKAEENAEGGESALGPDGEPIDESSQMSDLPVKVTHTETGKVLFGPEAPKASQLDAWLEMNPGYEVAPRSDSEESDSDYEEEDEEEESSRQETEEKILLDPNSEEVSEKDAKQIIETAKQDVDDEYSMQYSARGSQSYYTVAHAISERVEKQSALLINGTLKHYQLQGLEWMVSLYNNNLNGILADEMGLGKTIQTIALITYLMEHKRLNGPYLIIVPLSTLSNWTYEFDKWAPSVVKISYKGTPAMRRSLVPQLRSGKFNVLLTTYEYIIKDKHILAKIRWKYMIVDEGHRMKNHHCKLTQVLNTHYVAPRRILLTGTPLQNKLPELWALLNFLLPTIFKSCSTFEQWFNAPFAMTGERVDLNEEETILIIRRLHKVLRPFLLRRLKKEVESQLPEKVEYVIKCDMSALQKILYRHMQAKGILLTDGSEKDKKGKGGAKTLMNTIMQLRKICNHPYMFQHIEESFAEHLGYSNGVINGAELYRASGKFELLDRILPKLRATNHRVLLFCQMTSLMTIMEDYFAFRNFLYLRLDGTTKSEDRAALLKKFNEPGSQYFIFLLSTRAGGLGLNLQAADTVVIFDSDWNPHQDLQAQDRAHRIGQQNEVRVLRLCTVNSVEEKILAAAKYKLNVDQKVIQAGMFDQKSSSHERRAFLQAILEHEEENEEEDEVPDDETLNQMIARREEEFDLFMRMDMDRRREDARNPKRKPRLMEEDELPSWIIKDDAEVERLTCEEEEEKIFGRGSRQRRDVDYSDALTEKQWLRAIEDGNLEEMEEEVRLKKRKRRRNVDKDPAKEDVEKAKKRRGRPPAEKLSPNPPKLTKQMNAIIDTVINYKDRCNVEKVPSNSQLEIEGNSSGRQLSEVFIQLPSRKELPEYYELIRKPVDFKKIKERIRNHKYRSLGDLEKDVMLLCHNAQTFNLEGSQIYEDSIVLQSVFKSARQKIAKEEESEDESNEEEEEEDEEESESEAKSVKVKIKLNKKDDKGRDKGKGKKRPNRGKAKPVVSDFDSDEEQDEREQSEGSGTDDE

Compound	DC50 [µM]	Dmax [%]
Cc1ncsc1-c1ccc([C@H](C)NC(=O)[C@@H]2C[C@@H](O)CN2C(=O)[C@H](NC(=O)OCCN2CCN3c4cc(-c5ccccc5O)nnc4NCC3C2)C(C)(C)C)cc1 (stereo partly drawn) [Example 7, 2-(2-(2-hydroxyphenyl)-5,6,6a,7,9,10-hexahydro-8H-pyrazino[1′,2′:4,5]pyrazino[2,3-c]pyridazin-8-yl)ethyl ((R)-1-((2S,4R)-4-hydroxy-2-(((S)-1-(4-(4-methylthiazol-5-yl)phenyl)ethyl)carbamoyl)pyrrolidin-1-yl)-3,3-dimethyl-1-oxobutan-2-yl)carbamate]	0.1 to 1	> 75
Cc1ncsc1-c1ccc([C@H](C)NC(=O)[C@@H]2C[C@@H](O)CN2C(=O)[C@@H](c2cc(OCCN3CC4(CC(N5CCN6c7cc(-c8ccccc8O)nnc7NCC6C5)C4)C3)no2)C(C)C)cc1 (stereo partly drawn) [Example 13, (2S,4R)-4-hydroxy-1-((2R)-2-(3-(2-(6-(2-(2-hydroxyphenyl)-5,6,6a,7,9,10-hexahydro-8H-pyrazino[1′,2′:4,5]pyrazino[2,3-c]pyridazin-8-yl)-2-azaspiro[3.3]heptan-2-yl)ethoxy)isoxazol-5-yl)-3-methylbutanoyl)-N-((S)-1-(4-(4-methylthiazol-5-yl)phenyl)ethyl)pyrrolidine-2-carboxamide]	< 0.1	> 75
Cc1ncsc1-c1ccc([C@H](C)NC(=O)[C@@H]2C[C@@H](O)CN2C(=O)[C@@H](c2cc(OCCN3CCC(CCN4CCC(N5CCN6c7cc(-c8ccccc8O)nnc7NC[C@H]6C5)CC4)CC3)no2)C(C)C)cc1 [Example 22, (2S,4R)-4-hydroxy-1-((R)-2-(3-(2-(4-(2-(4-((S)-2-(2-hydroxyphenyl)-5,6,6a,7,9,10-hexahydro-8H-pyrazino[1′,2′:4,5]pyrazino[2,3-c]pyridazin-8-yl)piperidin-1-yl)ethyl)piperidin-1-yl)ethoxy)isoxazol-5-yl)-3-methylbutanoyl)-N-((S)-1-(4-(4-methylthiazol-5-yl)phenyl)ethyl)pyrrolidine-2-carboxamide]	< 0.1	> 75
Cc1ncsc1-c1ccc([C@H](C)NC(=O)[C@@H]2C[C@@H](O)CN2C(=O)[C@@H](NC(=O)COCCN2CCN3c4cc(-c5ccccc5O)nnc4NCC3C2)C(C)(C)C)cc1 (stereo partly drawn) [Example 65, (2S,4R)-4-hydroxy-1-((2S)-2-(2-(2-(2-(2-hydroxyphenyl)-5,6,6a,7,9,10-hexahydro-8H-pyrazino[1′,2′:4,5]pyrazino[2,3-c]pyridazin-8-yl)ethoxy)acetamido)-3,3-dimethylbutanoyl)-N-((S)-1-(4-(4-methylthiazol-5-yl)phenyl)ethyl)pyrrolidine-2-carboxamide]	0.1 to 1	> 75
Cc1ncsc1-c1ccc([C@H](C)NC(=O)[C@@H]2C[C@@H](O)CN2C(=O)[C@@H](c2cc(OCCN3CCC(CN4CCC(N5CCN6c7cc(-c8ccccc8O)nnc7NC[C@H]6C5)CC4)CC3)no2)C(C)C)cc1 [Example 20, (2S,4R)-4-hydroxy-1-((R)-2-(3-(2-(4-((4-((S)-2-(2-hydroxyphenyl)-5,6,6a,7,9,10-hexahydro-8H-pyrazino[1′,2′:4,5]pyrazino[2,3-c]pyridazin-8-yl)piperidin-1-yl)methyl)piperidin-1-yl)ethoxy)isoxazol-5-yl)-3-methylbutanoyl)-N-((S)-1-(4-(4-methylthiazol-5-yl)phenyl)ethyl)pyrrolidine-2-carboxamide]	< 0.1	> 75
Cc1ncsc1-c1ccc([C@H](C)NC(=O)[C@@H]2C[C@@H](O)CN2C(=O)[C@@H](c2cc(CCCN3CCC(N4CCN5c6cc(-c7ccccc7O)nnc6NC[C@H]5C4)CC3)no2)C(C)C)cc1 [Example 33, (2S,4R)-4-hydroxy-1-((R)-2-(3-(3-(4-((S)-2-(2-hydroxyphenyl)-5,6,6a,7,9,10-hexahydro-8H-pyrazino[1′,2′:4,5]pyrazino[2,3-c]pyridazin-8-yl)piperidin-1-yl)propyl)isoxazol-5-yl)-3-methylbutanoyl)-N-((S)-1-(4-(4-methylthiazol-5-yl)phenyl)ethyl)pyrrolidine-2-carboxamide]	< 0.1	> 75
Cc1ncsc1-c1ccc([C@H](C)NC(=O)[C@@H]2C[C@@H](O)CN2C(=O)[C@@H](c2cc(OC(C)CN3CCCC(CN4CCN5c6cc(-c7ccccc7O)nnc6NC[C@H]5C4)C3)no2)C(C)C)cc1 (stereo partly drawn) [Example 24, (2S,4R)-4-hydroxy-1-((2R)-2-(3-((1-(3-(((S)-2-(2-hydroxyphenyl)-5,6,6a,7,9,10-hexahydro-8H-pyrazino[1′,2′:4,5]pyrazino[2,3-c]pyridazin-8-yl)methyl)piperidin-1-yl)propan-2-yl)oxy)isoxazol-5-yl)-3-methylbutanoyl)-N-((S)-1-(4-(4-methylthiazol-5-yl)phenyl)ethyl)pyrrolidine-2-carboxamide]	< 0.1	
Cc1ncsc1-c1ccc([C@H](C)NC(=O)[C@@H]2C[C@@H](O)CN2C(=O)C(c2cc(COC(=O)N3CCC(N4CCN5c6cc(-c7ccccc7O)nnc6NC[C@H]5C4)CC3)no2)C(C)C)cc1 (stereo partly drawn) [Example 53, (5-(1-((2S,4R)-4-hydroxy-2-(((S)-1-(4-(4-methylthiazol-5-yl)phenyl)ethyl)carbamoyl)pyrrolidin-1-yl)-3-methyl-1-oxobutan-2-yl)isoxazol-3-yl)methyl 4-((S)-2-(2-hydroxyphenyl)-5,6,6a,7,9,10-hexahydro-8H-pyrazino[1′,2′:4,5]pyrazino[2,3-c]pyridazin-8-yl)piperidine-1-carboxylate]	< 0.1	> 75

Results, then the molecule that gave them:

DC50 [µM]	Dmax [%]	Compound
< 0.1	> 75	Cc1ncsc1-c1ccc([C@H](C)NC(=O)[C@@H]2C[C@@H](O)CN2C(=O)[C@@H](NC(=O)CN2CCC(N3CCN4c5cc(-c6ccccc6O)nnc5NC[C@H]4C3)CC2)C(C)(C)C)cc1 [Example 11, (2S,4R)-4-hydroxy-1-((S)-2-(2-(4-((S)-2-(2-hydroxyphenyl)-5,6,6a,7,9,10-hexahydro-8H-pyrazino[1′,2′:4,5]pyrazino[2,3-c]pyridazin-8-yl)piperidin-1-yl)acetamido)-3,3-dimethylbutanoyl)-N-((S)-1-(4-(4-methylthiazol-5-yl)phenyl)ethyl)pyrrolidine-2-carboxamide]
< 0.1	> 75	Cc1ncsc1-c1ccc([C@H](C)NC(=O)[C@@H]2C[C@@H](O)CN2C(=O)[C@@H](c2cc(OCCN3CCCC(CN4CCN5c6cc(-c7ccccc7O)nnc6NC[C@H]5C4)CC3)no2)C(C)C)cc1 (stereo partly drawn) [Example 84, (2S,4R)-4-hydroxy-1-((2R)-2-(3-(2-(4-(((S)-2-(2-hydroxyphenyl)-5,6,6a,7,9,10-hexahydro-8H-pyrazino[1′,2′:4,5]pyrazino[2,3-c]pyridazin-8-yl)methyl)azepan-1-yl)ethoxy)isoxazol-5-yl)-3-methylbutanoyl)-N-((S)-1-(4-(4-methylthiazol-5-yl)phenyl)ethyl)pyrrolidine-2-carboxamide]
< 0.1	> 75	CC(=O)O[C@@H]1C[C@@H](C(=O)N[C@@H](C)c2ccc(-c3scnc3C)cc2)N(C(=O)[C@@H](c2cc(OCCN3CCN4c5cc(-c6ccccc6O)nnc5NCC4C3)no2)C(C)C)C1 (stereo partly drawn) [Example 9, (3R,5S)-1-((2R)-2-(3-(2-(2-(2-hydroxyphenyl)-5,6,6a,7,9,10-hexahydro-8H-pyrazino[1′,2′:4,5]pyrazino[2,3-c]pyridazin-8-yl)ethoxy)isoxazol-5-yl)-3-methylbutanoyl)-5-(((S)-1-(4-(4-methylthiazol-5-yl)phenyl)ethyl)carbamoyl)pyrrolidin-3-yl acetate]
< 0.1	> 75	Cc1ncsc1-c1ccc([C@H](C)NC(=O)[C@@H]2C[C@@H](OC(=O)C(C)C)CN2C(=O)[C@@H](c2cc(OCCN3CCC(CN4CCN5c6cc(-c7ccccc7O)nnc6NC[C@H]5C4)CC3)no2)C(C)C)cc1 [Example 52, (3R,5S)-1-((R)-2-(3-(2-(4-(((S)-2-(2-hydroxyphenyl)-5,6,6a,7,9,10-hexahydro-8H-pyrazino[1′,2′:4,5]pyrazino[2,3-c]pyridazin-8-yl)methyl)piperidin-1-yl)ethoxy)isoxazol-5-yl)-3-methylbutanoyl)-5-(((S)-1-(4-(4-methylthiazol-5-yl)phenyl)ethyl)carbamoyl)pyrrolidin-3-yl isobutyrate]
< 0.1	> 75	Cc1ncsc1-c1ccc([C@H](C)NC(=O)[C@@H]2C[C@@H](O)CN2C(=O)[C@@H](NC(=O)C2CN(CCCN3CCN4c5cc(-c6ccccc6O)nnc5NCC4C3)C2)C(C)(C)C)cc1 (stereo partly drawn) [Example 82, (2S,4R)-4-hydroxy-1-((2S)-2-(1-(3-(2-(2-hydroxyphenyl)-5,6,6a,7,9,10-hexahydro-8H-pyrazino[1′,2′:4,5]pyrazino[2,3-c]pyridazin-8-yl)propyl)azetidine-3-carboxamido)-3,3-dimethylbutanoyl)N-((S)-1-(4-(4-methylthiazol-5-yl)phenyl)ethyl)pyrrolidine-2-carboxamide]
